Reference: patent US20210137886A1, “INHIBITORS OF METALLO-BETA-LACTAMASES” (Oxford University Innovation Limited, priority 2017, published 2021)
pIC50: −log10 of the molar value. Converted amounts (≈) assume the structure as drawn.

Columns and labels:
[1] = target: VIM-1 (Veronese metallo-β-lactamase-1) (Pseudomonas aeruginosa, UniProt A0A0F7KYQ8); test: Metallo-β-lactamase enzyme inhibition, standard assay protocol
[2] = target: VIM-2 (Veronese metallo-β-lactamase-2) (Escherichia coli, UniProt Q5U7L7); test: as above
[3] = target: NDM-1 (New Delhi metallo-β-lactamase-1) (Klebsiella pneumoniae, UniProt C7C422); test: as above
IMP-1 (Imipenemase-1) = IMP-1 (Imipenemase-1) (Serratia marcescens, UniProt P52699); test: as above
[4] = test system: Klebsiella pneumoniae IMP-4; test: Meropenem MIC, CLSI broth or agar microdilution, strain entry 1; format: cell-based
[5] = test system: Klebsiella pneumoniae NDM-1; test: Meropenem MIC, CLSI broth or agar microdilution, strain entry 6; format: cell-based; details: for Change in MIC value of meropenem: strain entry 6, Klebsiella pneumoniae NDM-1
Description: (§1) In each case DMSO was used to dissolve inhibitors.

[6] = test system: Klebsiella pneumoniae NDM-1 + DHA + CTX − M-15; test: Meropenem MIC, CLSI broth or agar microdilution, strain entry 7; format: cell-based
E. coli IMP-4 = test: Meropenem MIC, CLSI broth or agar microdilution, strain entry 2; format: cell-based
E. coli VIM-1 = test: Meropenem MIC, CLSI broth or agar microdilution, strain entry 3; format: cell-based; details: for Change in MIC value of meropenem: strain entry 3, E. coli VIM-1
Description: as §1

[7] = test system: Pseudomonas aeruginosa VIM-2; test: Meropenem MIC, CLSI broth or agar microdilution, strain entry 5; format: cell-based; details: for Change in MIC value of meropenem: strain entry 5, Pseudomonas aeruginosa VIM-2
Description: as §1

[8] = test system: Klebsiella pneumoniae VIM-1; test: Meropenem MIC, CLSI broth or agar microdilution, strain entry 4; format: cell-based

Sequence of NDM-1 (New Delhi metallo-β-lactamase-1) (C7C422 29-270, looked up, species assumed): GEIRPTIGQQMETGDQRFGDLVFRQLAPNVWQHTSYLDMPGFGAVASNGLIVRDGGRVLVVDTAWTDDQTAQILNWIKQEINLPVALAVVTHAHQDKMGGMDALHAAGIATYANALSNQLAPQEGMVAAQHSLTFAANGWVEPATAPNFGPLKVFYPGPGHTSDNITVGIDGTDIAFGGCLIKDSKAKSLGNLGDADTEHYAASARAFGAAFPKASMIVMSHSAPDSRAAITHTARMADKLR
Sequence of IMP-1 (Imipenemase-1) (P52699 19-246, looked up, species assumed): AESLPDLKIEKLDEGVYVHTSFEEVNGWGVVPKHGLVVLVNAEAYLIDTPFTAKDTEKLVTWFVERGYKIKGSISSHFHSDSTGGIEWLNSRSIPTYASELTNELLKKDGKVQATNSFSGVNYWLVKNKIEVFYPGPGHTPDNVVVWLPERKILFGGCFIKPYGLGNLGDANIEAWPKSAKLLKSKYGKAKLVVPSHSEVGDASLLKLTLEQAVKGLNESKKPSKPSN

O=C(O)c1[nH]c2c(Br)csc2c1-c1cc(Cl)cc(Cl)c1 [Example 1, 3-bromo-6-(3,5-dichlorophenyl)-4H-thieno[3,2-b]pyrrole-5-carboxylic acid]
pIC50 [1]: 6.20 | pIC50 [2]: 7.40 | pIC50 [3]: 7.20 | pIC50 (IMP-1 (Imipenemase-1)): 6.00

O=C(O)c1[nH]c2c(C3CC3)csc2c1-c1cc(Cl)cc(Cl)c1 [Example 2, 3-cyclopropyl-6-(3,5-dichlorophenyl)-4H-thieno[3,2-b]pyrrole-5-carboxylic acid]
pIC50 [1]: 6.90 | Change in MIC value of meropenem ([4]; 2 mg/L inhibitor): −2 log2 difference | Change in MIC value of meropenem ([4]; 4 mg/L inhibitor): −2 log2 difference | Change in MIC value of meropenem ([4]; 8 mg/L inhibitor): −2 log2 difference | Change in MIC value of meropenem ([5]; 2 mg/L inhibitor): −1 log2 difference | Change in MIC value of meropenem ([5]; 4 mg/L inhibitor): −1 log2 difference | Change in MIC value of meropenem ([5]; 8 mg/L inhibitor): −2 log2 difference | pIC50 [2]: 8.30 | pIC50 [3]: 7.80 | Change in MIC value of meropenem ([6]; 2 mg/L inhibitor): −1 log2 difference | Change in MIC value of meropenem ([6]; 4 mg/L inhibitor): −2 log2 difference | Change in MIC value of meropenem ([6]; 8 mg/L inhibitor): −3 log2 difference | Change in MIC value of meropenem (E. coli IMP-4; 2 mg/L inhibitor): −2 log2 difference | Change in MIC value of meropenem (E. coli IMP-4; 4 mg/L inhibitor): −2 log2 difference | Change in MIC value of meropenem (E. coli IMP-4; 8 mg/L inhibitor): −3 log2 difference | Change in MIC value of meropenem (E. coli VIM-1; 2 mg/L inhibitor): −1 log2 difference | Change in MIC value of meropenem (E. coli VIM-1; 4 mg/L inhibitor): −1 log2 difference | Change in MIC value of meropenem (E. coli VIM-1; 8 mg/L inhibitor): −1 log2 difference | pIC50 (IMP-1 (Imipenemase-1)): 7.10 | Change in MIC value of meropenem ([7]; 2 mg/L inhibitor): 0 log2 difference | Change in MIC value of meropenem ([7]; 4 mg/L inhibitor): 0 log2 difference | Change in MIC value of meropenem ([7]; 8 mg/L inhibitor): 0 log2 difference | Change in MIC value of meropenem ([8]; 2 mg/L inhibitor): −2 log2 difference | Change in MIC value of meropenem ([8]; 4 mg/L inhibitor): −2 log2 difference | Change in MIC value of meropenem ([8]; 8 mg/L inhibitor): −2 log2 difference

O=C(O)c1cc2scc(Br)c2[nH]1 [Example 3, 3-bromo-4H-thieno[3,2-b]pyrrole-5-carboxylic acid]
pIC50 [1]: < 3.60 | pIC50 [2]: 4.80 | pIC50 [3]: 3.90 | pIC50 (IMP-1 (Imipenemase-1)): < 3.60

O=C(O)c1[nH]c2c(Br)csc2c1-c1ccc(F)cc1 [Example 4, 3-Bromo-6-(4-fluorophenyl)-4H-thieno-[3,2-b]pyrrole-5-carboxylic acid]
pIC50 [1]: 5.30 | pIC50 [2]: 6.50 | pIC50 [3]: 6.70 | pIC50 (IMP-1 (Imipenemase-1)): 5.60

O=C(O)c1[nH]c2c(-c3ccc(F)cc3)csc2c1-c1ccc(F)cc1 [Example 5, 3,6-Bis(4-fluorophenyl)-4H-thieno-[3,2-b]pyrrole-5-carboxylic acid]
pIC50 [1]: < 4.40 | pIC50 [2]: 5.00 | pIC50 [3]: 4.90 | pIC50 (IMP-1 (Imipenemase-1)): 5.60

C=C(C)c1csc2c(-c3ccc(F)cc3)c(C(=O)O)[nH]c12 [Example 6, 3-isopropenyl-6-(4-fluorophenyl)-4H-thieno-[3,2-b]pyrrole-5-carboxylic acid]
pIC50 [1]: 6.20 | Change in MIC value of meropenem ([4]; 2 mg/L inhibitor): −2 log2 difference | Change in MIC value of meropenem ([4]; 4 mg/L inhibitor): −2 log2 difference | Change in MIC value of meropenem ([4]; 8 mg/L inhibitor): −2 log2 difference | Change in MIC value of meropenem ([5]; 2 mg/L inhibitor): −1 log2 difference | Change in MIC value of meropenem ([5]; 4 mg/L inhibitor): −1 log2 difference | Change in MIC value of meropenem ([5]; 8 mg/L inhibitor): −1 log2 difference | pIC50 [2]: 6.90 | pIC50 [3]: 7.40 | Change in MIC value of meropenem ([6]; 2 mg/L inhibitor): −1 log2 difference | Change in MIC value of meropenem ([6]; 4 mg/L inhibitor): −1 log2 difference | Change in MIC value of meropenem ([6]; 8 mg/L inhibitor): −1 log2 difference | Change in MIC value of meropenem (E. coli IMP-4; 2 mg/L inhibitor): −2 log2 difference | Change in MIC value of meropenem (E. coli IMP-4; 4 mg/L inhibitor): −2 log2 difference | Change in MIC value of meropenem (E. coli IMP-4; 8 mg/L inhibitor): −2 log2 difference | Change in MIC value of meropenem (E. coli VIM-1; 2 mg/L inhibitor): −1 log2 difference | Change in MIC value of meropenem (E. coli VIM-1; 4 mg/L inhibitor): 0 log2 difference | Change in MIC value of meropenem (E. coli VIM-1; 8 mg/L inhibitor): −1 log2 difference | pIC50 (IMP-1 (Imipenemase-1)): 6.30 | Change in MIC value of meropenem ([7]; 2 mg/L inhibitor): 0 log2 difference | Change in MIC value of meropenem ([7]; 4 mg/L inhibitor): 0 log2 difference | Change in MIC value of meropenem ([7]; 8 mg/L inhibitor): 0 log2 difference | Change in MIC value of meropenem ([8]; 2 mg/L inhibitor): −1 log2 difference | Change in MIC value of meropenem ([8]; 4 mg/L inhibitor): −1 log2 difference | Change in MIC value of meropenem ([8]; 8 mg/L inhibitor): 0 log2 difference

CC(C)c1csc2cc(C(=O)O)[nH]c12 [Example 7, 3-isopropyl-4H-thieno[3,2-b]pyrrole-5-carboxylic acid]
pIC50 [1]: < 3.60 | pIC50 [2]: 4.70 | pIC50 [3]: 4.40 | pIC50 (IMP-1 (Imipenemase-1)): < 4.20

O=C(O)c1cc2scc(C3CC3)c2[nH]1 [Example 8, 3-cyclopropyl-4H-thieno[3,2-b]pyrrole-5-carboxylic acid]
pIC50 [1]: < 3.60 | pIC50 [2]: 4.40 | pIC50 [3]: 3.90 | pIC50 (IMP-1 (Imipenemase-1)): < 3.60

CC(=O)Nc1cccc(-c2c(C(=O)O)[nH]c3c(Br)csc23)c1 [Example 9, 6-(3-acetamidophenyl)-3-bromo-4H-thieno[3,2-b]pyrrole-5-carboxylic acid]
pIC50 [1]: 5.80 | pIC50 [2]: 7.30 | pIC50 [3]: 6.50 | pIC50 (IMP-1 (Imipenemase-1)): 4.90

CS(=O)(=O)Cc1ccc(-c2c(C(=O)O)[nH]c3c(C4CC4)csc23)cc1Cl [Example 18, 6-(3-chloro-4-((methylsulfonyl)methyl)phenyl)-3-cyclopropyl-4H-thieno[3,2-b]pyrrole-5-carboxylic acid]
Change in MIC value of meropenem ([4]; 2 mg/L inhibitor): 0 log2 difference | Change in MIC value of meropenem ([4]; 4 mg/L inhibitor): 0 log2 difference | Change in MIC value of meropenem ([4]; 8 mg/L inhibitor): 0 log2 difference | Change in MIC value of meropenem ([5]; 2 mg/L inhibitor): 0 log2 difference | Change in MIC value of meropenem ([5]; 4 mg/L inhibitor): 0 log2 difference | Change in MIC value of meropenem ([5]; 8 mg/L inhibitor): 0 log2 difference | Change in MIC value of meropenem ([6]; 2 mg/L inhibitor): −2 log2 difference | Change in MIC value of meropenem ([6]; 4 mg/L inhibitor): −2 log2 difference | Change in MIC value of meropenem ([6]; 8 mg/L inhibitor): −2 log2 difference | Change in MIC value of meropenem (E. coli IMP-4; 2 mg/L inhibitor): 0 log2 difference | Change in MIC value of meropenem (E. coli IMP-4; 4 mg/L inhibitor): 0 log2 difference | Change in MIC value of meropenem (E. coli IMP-4; 8 mg/L inhibitor): 0 log2 difference | Change in MIC value of meropenem (E. coli VIM-1; 2 mg/L inhibitor): −1 log2 difference | Change in MIC value of meropenem (E. coli VIM-1; 4 mg/L inhibitor): −1 log2 difference | Change in MIC value of meropenem (E. coli VIM-1; 8 mg/L inhibitor): −1 log2 difference | Change in MIC value of meropenem ([7]; 2 mg/L inhibitor): 0 log2 difference | Change in MIC value of meropenem ([7]; 4 mg/L inhibitor): 0 log2 difference | Change in MIC value of meropenem ([7]; 8 mg/L inhibitor): 0 log2 difference | Change in MIC value of meropenem ([8]; 2 mg/L inhibitor): −3 log2 difference | Change in MIC value of meropenem ([8]; 4 mg/L inhibitor): −2 log2 difference | Change in MIC value of meropenem ([8]; 8 mg/L inhibitor): −3 log2 difference

C[C@@H](O)[C@H]1C(=O)N2C(C(=O)O)=C(S[C@@H]3CN[C@H](C(=O)N(C)C)C3)[C@H](C)[C@H]12 [meropenem, reference compound]
MIC ([5]; Klebsiella pneumoniae, NDM1, read-out: MER MIC): > 128 mg/L | MIC (E. coli VIM-1; Escherichia coli, VIM1, read-out: MER MIC): 0.25 mg/L (≈ 0.652 µM) | MIC ([7]; Pseudomonas aeruginosa, VIM2, read-out: MER MIC): 32 mg/L (≈ 83.4 µM)
